Here are results for one substance from US9206236B2, “Peptides for treating cancer” (Gene Signal International SA, priority 2010, dated 2015).

The nature of series [1]: Solubility of peptides in 10% DMSO in PBS. It is filed as physicochemical. The conditions noted are these: 1 mg of peptide/ml of 10% DMSO in PBS. The method, then: GS-1 as well as the control peptide GS-0 were solubilized in DMSO and the resulting solutions were diluted 10 times with phosphate buffer saline (PBS) to obtain a concentration of 1 mg of peptide/ml of 10% DMSO in PBS. At this concentration, all peptides were soluble in 10% DMSO.
GS-2 as well as the control peptide GS-0 were solubilized in DMSO and the resulting solutions were diluted 10 times with phosphate buffer saline (PBS) to obtain a concentration of 1 mg of peptide/ml of 10% DMSO in PBS. At this concentration, all peptides were soluble in 10% DMSO.

Another series has as its system mTOR. Description: mTOR status in HMEC after incubation with peptides (anti-mTor antibody Ser2448). It counts as cell-based, human. How it is done:
(§1) Human EC grown in EGM-2MV (80% confluence) were incubated with the peptides of the invention or vehicle for the indicated time, washed three times in cold PBS and directly lysed in 2 ml of ice-cold lysis buffer (10 mM Tris pH 7.5, 150 mM NaCl, 1 mM PMSF, 0.5 μg/ml leupeptin, 1 μg/ml pepstatin A, and 1 μg/ml aprotinin) by incubation for 30 min at 4° C. Cell lysate were spun at […] for 10 min, insoluble materials were discarded, and protein contents measured by Bradford assay of supernatants were adjusted. Cell lysate (1 ml) was precleared with 25 μl of protein G-plus agarose beads (Santa Cruz) for 30 min, and proteins were then immunoprecipitated by adding 2 μg of the indicated antibody and incubated for 1 hr. The immunocomplex was pulled down with protein G-plus agarose beads and the beads were washed three times with lysis buffer. The immunoprecipitates were separated by NuPAGE® 4-12% Bis-Tris gel electrophoresis under reducing conditions, transferred to PVDF membrane (Novex System, Invitrogen), and the membrane was blocked with 5% (w/v) non-fat milk in TBS containing 0.1% v/v Tween-20 for 1 hr.
The status of mTOR in the HMEC following incubation with peptides GS-0 and GS-1 was investigated.

Another series has as its system NCI-H460 tumors. Put plainly: NCI-H460 tumor xenograft in nude mice, tumor volume (Example 3). It is filed as in vivo. The method, then:
H460 cell line has cytology compatible with human Non-Small Cell Lung Cancer (NSCL). Cells were grown in MEM medium containing 10% FCS at 37° C., 5% CO2 humidified atmosphere. The absence of mycoplasms was confirmed by using the PCR Mycoplasma Detection kit (Takara). All experiments were reviewed by the Genopole's institutional animal care and use committee and were performed in accordance with institutional guidelines for animal care. Female BALB/c nu/nu mice (n=30) were used at 5-6 weeks of age. The animals were housed in laminar air-flow cabinets under pathogen-free conditions with a 12 h light/12 h dark schedule, and fed autoclaved standard chow and water ad libitum. The NCI-H460 human NSCL cell line was obtained from American Type Culture Collection (ATCC) were grown in RPMI medium 1640 supplemented with 1 μM sodium pyruvate. Tumor cells (10^7 cells in 200 μl of HBSS) were injected subcutaneously into the right flanks of mice. After engraftment, tumor volume was measured by Vernier callipers, and calculated as described in Balsam A et al. (Balsari A et al. (2004) Eur J Cancer 40: 1275-1281). At tumor volume about 150 mm^3, animals were randomized, and separated into five groups of five animals. Control mice (group 1) were intraperitoneally injected with vehicle (10% DMSO in buffer saline) every day. GS-0 was dissolved in vehicle and intraperitoneally injected (group 2) every day (12 injections). GS-2 was dissolved in vehicle and intraperitoneally injected (group 3) every day (12 injections). Tumor volume and body weight were measured every other day over the treatment period (12 days). GS-2 as well as the control peptide GS-0 were solubilized in DMSO and the resulting solutions were diluted 10 times with phosphate buffer saline (PBS) to obtain a concentration of 1 mg of peptide/ml of 10% DMSO in PBS. At this concentration, all peptides were soluble in 10% DMSO.

The target of series [2] is T1, recruitment of the regulatory subunit (p85) of the enzyme PI-3K by IRS-1 (Homo sapiens, UniProt P27986).
T1 construct: endogenous in cells; host or cells: human microvascular endothelial cells (HMEC)
Put plainly: Recruitment of p85 of PI-3K by IRS-1 (IRS-1 immunoprecipitation, anti-p85 immunoblot) in HMEC. It is filed as cell-based. The conditions noted are these: final concentration of peptide 500 μg/ml. The method, then: as §1
As it is widely admitted that the tyrosine phosphorylation of IRS-1 leads to its association with the regulatory subunit (p85) of the enzyme PI-3K, and this event lead to important increases in the enzymatic activity of this later, we have investigated the influence of the tyrosine phosphorylated and non phosphorylated peptides onto the recruitment of the regulatory subunit (p85) of the enzyme PI-3K by IRS-1. For that, human microvascular endothelial cells (HMEC) were incubated with the tyrosine phosphorylated and non phosphorylated peptides (final concentration of peptide 500 μg/ml) followed by cells lysis and immuoprecipitation of the protein IRS-1. The immunoprecipitates were then resolved in SDS-PAGE, proteins were transferred to membranes, and the membranes were immunoblotted with an anti-p85 PI3K monoclonal antibody.
Background: A western blot detects proteins with antibodies after separation by electrophoresis.

T1 sequence (P27986 whole entry): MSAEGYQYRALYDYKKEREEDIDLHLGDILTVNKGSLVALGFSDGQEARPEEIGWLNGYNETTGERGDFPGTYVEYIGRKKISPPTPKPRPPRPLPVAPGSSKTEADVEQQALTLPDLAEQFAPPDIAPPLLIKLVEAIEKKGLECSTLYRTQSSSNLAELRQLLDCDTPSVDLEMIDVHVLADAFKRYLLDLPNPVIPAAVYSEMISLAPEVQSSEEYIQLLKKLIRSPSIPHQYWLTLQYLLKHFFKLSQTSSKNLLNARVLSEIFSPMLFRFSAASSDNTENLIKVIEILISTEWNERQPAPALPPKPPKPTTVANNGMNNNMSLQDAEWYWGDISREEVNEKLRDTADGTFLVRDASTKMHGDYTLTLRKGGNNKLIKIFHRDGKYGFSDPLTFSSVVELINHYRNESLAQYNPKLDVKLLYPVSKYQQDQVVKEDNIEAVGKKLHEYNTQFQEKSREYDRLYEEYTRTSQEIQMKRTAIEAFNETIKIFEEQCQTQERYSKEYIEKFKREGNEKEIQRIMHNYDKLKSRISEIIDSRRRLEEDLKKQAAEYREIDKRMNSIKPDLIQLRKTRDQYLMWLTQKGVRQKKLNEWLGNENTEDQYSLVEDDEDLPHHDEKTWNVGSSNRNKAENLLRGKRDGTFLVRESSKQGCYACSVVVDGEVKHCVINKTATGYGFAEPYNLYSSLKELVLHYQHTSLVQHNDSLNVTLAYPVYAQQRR

Turning to “Ac-NYICMG-NH2 [GS-0, NYICMG, reference compound]”, in series [1], the “solubility in 10% DMSO” value is listed as “soluble”. Besides, the “amounts of mTOR in HMEC relative to vehicle” value with mTOR is listed as “equivalent amounts of mTOR as cell incubated with vehicle”. Further, the “influence on the in vivo growth of the tumor NCI-H460 (in words)” value in the series with NCI-H460 tumors (8 mg/kg i.p. daily for 12 days) is given as “no significant influence”. Besides, in the series with NCI-H460 tumors (8 mg/kg i.p. daily for 12 days, n=5), the “mean tumor volume at the end of treatment” value is reported as 1114.83 ± 534.50 mm^3. Moreover, in the series with NCI-H460 tumors (Table 4, 8 mg/kg i.p. daily, day 1), the Mean tumor volume D1 was 123 mm³. The substance also showed a Mean tumor volume D3 in the series with NCI-H460 tumors (Table 4, 8 mg/kg i.p. daily, day 3) of 233 mm³. For the same substance, in the series with NCI-H460 tumors (Table 4, 8 mg/kg i.p. daily, day 5), the Mean tumor volume D5 came out at 335 mm³. In the series with NCI-H460 tumors (Table 4, 8 mg/kg i.p. daily, day 7), the Mean tumor volume D7 came to 402 mm³. In the series on NCI-H460 tumors (Table 4, 8 mg/kg i.p. daily, day 9), the Mean tumor volume D9 was 553 mm³. The same substance came in with a Mean tumor volume D11 in the series with NCI-H460 tumors (Table 4, 8 mg/kg i.p. daily, day 11) of 751 mm³. This substance registered a Mean tumor volume D13 in the series on NCI-H460 tumors (Table 4, 8 mg/kg i.p. daily, day 13) of 1110 mm³. Besides, the “influence onto the recruitment of the regulatory subunit (p85) of PI3K by IRS-1” value in series [2] is recorded as “no and/or negligible influence”.
